Key:
[1] = oral administration of the PDE4 inhibitor in COPD: effect and side effects; assay type: in vivo
[2] = stability of Carbopol-based controlled release tablet versus moisture level; assay type: physicochemical; settings: moisture removed from the system
Source text: Low moisture levels in certain Carbopol-based controlled release preparations may compromise the stability of the active ingredient cis-4-cyano-4-[3-(cyclopentyloxy)-4-methoxyphenyl]cyclohexane-1-carboxylic acid. High moisture levels may compromise the release rate of such formulations.
It is not known why this occurs when the moisture level is below 0.5% nor is it known how to stop this from occuring, other than to maintain the specified levels of hydration.
The technique for measuring moisture level in this representative tablet was as follows:
The analysis was performed using a Omnimark MARK2 Moisture Analyzer. The Unit determines the moisture content using Infrared heat to dry the sample at a programmed temperature of 120° Celsius with a standby temperature of 80° Celsius. It calculates the percent loss on drying from the initial weight and the final weight of the sample. The results are printed out as % w/w automatically when the analysis is finished. The analysis usually takes 2 to 3 minutes for one measurement of a sample with a moisture level of less than 1.5%w/w.

PDE 4 = experiment: IC50 ratio (high/low affinity rolipram binding forms of PDE 4); assay type: biochemical; settings: IC50 for competing with 1 nM [3H]R-rolipram binding (high affinity form) over IC50 for PDE 4 catalytic activity (low affinity form), 1 uM [3H]-cAMP
Source text: This invention covers controlled release formulations which contain a PDE 4 inhibitor, particularly an inhibitor that is specific for PDE 4. A preferred group of inhibitors are those that have an IC50 ratio (high/low binding) of about 0.1 or greater as further described in co-pending U.S. application Ser. No. 08/456,274, now U.S. Pat. No. 6,143,782 and its published counter-part PCT application serial number published Jan. 05, 1995 as WO95/00139; this application is incorporated herein in full by reference as if fully set forth herein. A preferred standard for PDE 4-specific inhibitors which can be used in this invention is one where the compound has an IC50 ratio of about 0.1 or greater; said ratio being the ratio of the IC50 value for competing with the binding of 1 nM of [^3H]R-rolipram to a form of PDE 4 which binds rolipram with a high affinity over the IC50 value for inhibiting the PDE 4 catalytic activity of a form which binds rolipram with a low affinity using 1 uM[^3H]-cAMP as the substrate.

## COc1ccc([C@]2(C#N)CC[C@@H](C(=O)O)CC2)cc1OC1CCCC1 [cis-4-cyano-4-[3-(cyclopentyloxy)-4-methoxyphenyl]cyclohexane-1-carboxylic acid]
[1]; administered orally, at certain doses
  therapeutic effect in COPD: achieve an effective therapeutic effect in COPD at certain doses
[1]; as blood levels increase with increased levels of dosing
  side effects: undesirable side effects such as those attributed to CNS activity begin to be manifested
[2]
  stability in combination with dibasic calcium phosphate (anhydrous): appears to be unstable when moisture is removed from the system
PDE 4
  therapeutic ratio (IC50 ratio high/low binding): greater than 0.1
